Measured values taken from ChEMBL document CHEMBL3217446, “Selenosemicarbazones as potent cruzipain inhibitors and their antiparasitic properties against Trypanosoma cruzi” (Medchemcomm, 2012).
Activity calls are given as the source filed them. No cut-off for these calls is given here.

Tests used:
Trypanosoma cruzi [1] = experiment: Antitrypanosomal activity against amastigote stage of Trypanosoma cruzi Dm28c infected in African green monkey Vero cells assessed as growth inhibition at 2 times IC50 incubated 8 hrs post infection measured after 24 hrs relative to control; type: functional
[2] = Selectivity index, ratio of CC50 for African green monkey Vero cells to IC50 for epimastigote stage of Trypanosoma cruzi Dm28c; type: functional
[3] = target: Cruzipain (Trypanosoma cruzi) (UniProt P25779); experiment: Inhibition of Trypanosoma cruzi cruzipain using Z-Phe-Arg-AMC as substrate at 10 uM incubated for 5 mins prior to substrate addition measured after 10 mins by fluorescence assay
Chain of Cruzipain (Trypanosoma cruzi) (P25779 123-467 limits assumed): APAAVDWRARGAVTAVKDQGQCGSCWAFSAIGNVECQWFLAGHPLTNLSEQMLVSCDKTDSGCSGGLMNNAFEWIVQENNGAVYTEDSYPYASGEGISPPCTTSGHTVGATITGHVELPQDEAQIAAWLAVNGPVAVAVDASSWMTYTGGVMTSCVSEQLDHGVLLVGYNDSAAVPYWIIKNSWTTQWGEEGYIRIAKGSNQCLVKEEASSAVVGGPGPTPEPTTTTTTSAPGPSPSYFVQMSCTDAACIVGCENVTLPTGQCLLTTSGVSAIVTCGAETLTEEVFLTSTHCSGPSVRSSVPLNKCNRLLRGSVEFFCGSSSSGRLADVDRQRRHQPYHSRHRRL

Trypanosoma cruzi [4] = experiment: Antitrypanosomal activity against amastigote stage of Trypanosoma cruzi Dm28c infected in African green monkey Vero cells assessed as growth inhibition at IC50 incubated 8 hrs post infection measured after 24 hrs relative to control; type: functional
Trypanosoma cruzi [5] = experiment: Antitrypanosomal activity against amastigote stage of Trypanosoma cruzi Dm28c infected in African green monkey Vero cells assessed as growth inhibition at 4 times IC50 incubated 8 hrs post infection measured after 24 hrs relative to control; type: functional
[6] = target: Cruzipain (Trypanosoma cruzi) (UniProt P25779); experiment: Inhibition of Trypanosoma cruzi cruzipain using Z-Phe-Arg-AMC as substrate at 2 uM incubated for 5 mins prior to substrate addition measured after 10 mins by fluorescence assay
[7] = Cytotoxicity against African green monkey Vero cells after 72 hrs by resazurin assay; type: cell-based; details: chlorocebus sabaeus
[8] = target: Cruzipain (Trypanosoma cruzi) (UniProt P25779); experiment: Inhibition of Trypanosoma cruzi cruzipain using Z-Phe-Arg-AMC as substrate at 0.3 uM incubated for 5 mins prior to substrate addition measured after 10 mins by fluorescence assay
Trypanosoma cruzi [9] = experiment: Antitrypanosomal activity against epimastigote stage of Trypanosoma cruzi Dm28c infected in African green monkey Vero cells after 72 hrs relative to untreated control; type: functional, organism-based
Cruzipain [10] = target: T1, Cruzipain (Trypanosoma cruzi, UniProt P25779); experiment: Non-competitive inhibition of Trypanosoma cruzi cruzipain using Z-Phe-Arg-AMC as substrate assessed as function of velocity after 30 mins
T1 sequence (P25779 whole entry): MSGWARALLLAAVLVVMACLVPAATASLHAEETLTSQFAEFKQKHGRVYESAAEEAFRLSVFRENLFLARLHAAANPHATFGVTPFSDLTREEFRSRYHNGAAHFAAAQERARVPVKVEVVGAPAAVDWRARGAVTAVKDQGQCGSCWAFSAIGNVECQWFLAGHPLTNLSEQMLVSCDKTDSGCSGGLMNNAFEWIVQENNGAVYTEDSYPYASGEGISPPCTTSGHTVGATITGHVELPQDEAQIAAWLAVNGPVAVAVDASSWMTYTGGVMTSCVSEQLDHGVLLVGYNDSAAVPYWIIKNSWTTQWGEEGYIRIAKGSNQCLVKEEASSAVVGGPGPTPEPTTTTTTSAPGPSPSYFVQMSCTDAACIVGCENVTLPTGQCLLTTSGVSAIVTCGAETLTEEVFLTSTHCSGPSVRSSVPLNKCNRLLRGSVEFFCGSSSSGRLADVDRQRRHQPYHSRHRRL

Cruzipain [11] = target: T1, Cruzipain; experiment: Non-competitive inhibition of Trypanosoma cruzi cruzipain using Z-Phe-Arg-AMC as substrate assessed as function of Vmaxapp after 30 mins
[12] = target: Cruzipain (Trypanosoma cruzi) (UniProt P25779); experiment: Slow binding inhibition of Trypanosoma cruzi cruzipain using Z-Phe-Arg-AMC as substrate at 5 to 500 nM after 30 mins by fluorescence assay
Trypanosoma cruzi [13] = experiment: Antitrypanosomal activity against amastigote stage of Trypanosoma cruzi Dm28c infected in African green monkey Vero cells assessed as growth inhibition at 1 uM incubated 8 hrs post infection measured after 24 hrs relative to control; type: functional; details: read-out: GI
Trypanosoma cruzi [14] = experiment: Antitrypanosomal activity against amastigote stage of Trypanosoma cruzi Dm28c infected in African green monkey Vero cells assessed as growth inhibition at 30 uM incubated 8 hrs post infection measured after 24 hrs relative to control; type: functional; details: read-out: GI
Trypanosoma cruzi [15] = experiment: Antitrypanosomal activity against amastigote stage of Trypanosoma cruzi Dm28c infected in African green monkey Vero cells assessed as growth inhibition at 15 uM incubated 8 hrs post infection measured after 24 hrs relative to control; type: functional; details: read-out: GI
[16] = target: Cruzipain (Trypanosoma cruzi) (UniProt P25779); experiment: Reversible inhibition of Trypanosoma cruzi cruzipain at 10 uM pre-incubated for 30 mins

| Compound | growth inhibition (GI) (Trypanosoma cruzi [1]) [%] | Ratio CC50/IC50 [2] | inhibition [3] [%] | growth inhibition (GI) (Trypanosoma cruzi [4]) [%] | growth inhibition (GI) (Trypanosoma cruzi [5]) [%] | inhibition [6] [%] | CC50 at 72 h [7] [µM] | inhibition [8] [%] | IC50 (Trypanosoma cruzi [9]) [µM] | Ki (Cruzipain [10]) [nM] | Ki (Cruzipain [11]) [nM] | inhibition [12] | inhibition of growth at 1 µM (Trypanosoma cruzi [13]) [%] | inhibition of growth at 30 µM (Trypanosoma cruzi [14]) [%] | inhibition of growth at 15 µM (Trypanosoma cruzi [15]) [%] | inhibition [16] |
| --- | --- | --- | --- | --- | --- | --- | --- | --- | --- | --- | --- | --- | --- | --- | --- | --- |
| NC(=[Se])N/N=C/c1cccc(C(F)(F)F)c1 | 70 | 44 | 91 | 34 | 74 | 88 | 167 | 24 | 3.8 | – | – | – | – | – | – | – |
| C/C(=N/NC(N)=S)c1cccc(Br)c1 | – | – | 80 | – | – | 79 | – | 24 | – | 142 | – | – | – | – | – | – |
| CCCC/C(=N/NC(N)=[Se])c1ccc(Cl)c(Cl)c1 | 73 | 25 | 100 | 66 | 74 | 98 | 81.8 | 95 | 3.2 | 3.7 | 6.4 | Active | – | – | – | – |
| NC(=[Se])NN=C(c1cccc(Br)c1)c1cccc(Br)c1 | – | 14 | 99 | – | – | 98 | 71.2 | 90 | 5.2 | 13.3 | – | Active | – | – | – | – |
| NC(=[Se])N/N=C/c1cccc(Br)c1 | – | 29 | 93 | – | – | 93 | 172 | 40 | 5.9 | – | – | – | – | – | – | – |
| O=C(Cn1ccnc1[N+](=O)[O-])NCc1ccccc1 [BENZNIDAZOLE] | – | 25 | – | – | – | – | 309 | – | 12.5 | – | – | – | 27 | 85 | 77 | – |
| C/C(=N\NC(N)=[Se])c1cccc(Br)c1 | 77 | 39 | 98 | 76 | 78 | 87 | 46.4 | 81 | 1.2 | 29.7 | – | Active | – | – | – | Active |
| NC(=[Se])N/N=C/c1ccc(Cl)c(Cl)c1 | 69 | 41 | 99 | 63 | 72 | 96 | 95.1 | 57 | 2.3 | – | – | – | – | – | – | – |
